Activity calls are given as the source filed them. The calls are words filed in the database; no cut-off is given here. Bounds are passed on as bounds.

For series [1], the target named is T1, Alpha-1D adrenergic receptor (Homo sapiens, UniProt P25100).
T1 sequence (P25100 whole entry): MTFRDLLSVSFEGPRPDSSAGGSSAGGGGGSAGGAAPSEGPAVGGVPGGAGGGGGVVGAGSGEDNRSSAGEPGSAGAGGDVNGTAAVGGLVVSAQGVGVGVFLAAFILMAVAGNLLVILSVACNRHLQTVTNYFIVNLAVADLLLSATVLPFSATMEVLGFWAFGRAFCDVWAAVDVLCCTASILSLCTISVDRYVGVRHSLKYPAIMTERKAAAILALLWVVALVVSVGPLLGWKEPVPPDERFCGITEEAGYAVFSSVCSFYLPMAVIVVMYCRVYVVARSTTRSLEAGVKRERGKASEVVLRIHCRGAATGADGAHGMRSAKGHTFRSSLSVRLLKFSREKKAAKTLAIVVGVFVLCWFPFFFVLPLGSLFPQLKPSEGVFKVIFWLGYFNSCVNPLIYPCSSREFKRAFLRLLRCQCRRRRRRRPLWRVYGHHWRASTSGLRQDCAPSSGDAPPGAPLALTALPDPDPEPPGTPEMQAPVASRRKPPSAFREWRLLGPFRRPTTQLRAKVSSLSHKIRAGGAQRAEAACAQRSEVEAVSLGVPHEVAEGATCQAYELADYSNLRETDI
In words: Displacement of radiolabeled Prazosin from alpha1D adrenoceptor.

A further series addresses Cytochrome P450 2D6 (Homo sapiens, UniProt P10635). In words: Inhibition of CYP2D6. The series is classed as ADME.
Series [2] deals with T2, Voltage-gated inwardly rectifying potassium channel KCNH2 (Homo sapiens, UniProt Q12809). In words: Inhibition of human ERG.
T2 sequence (Q12809 whole entry): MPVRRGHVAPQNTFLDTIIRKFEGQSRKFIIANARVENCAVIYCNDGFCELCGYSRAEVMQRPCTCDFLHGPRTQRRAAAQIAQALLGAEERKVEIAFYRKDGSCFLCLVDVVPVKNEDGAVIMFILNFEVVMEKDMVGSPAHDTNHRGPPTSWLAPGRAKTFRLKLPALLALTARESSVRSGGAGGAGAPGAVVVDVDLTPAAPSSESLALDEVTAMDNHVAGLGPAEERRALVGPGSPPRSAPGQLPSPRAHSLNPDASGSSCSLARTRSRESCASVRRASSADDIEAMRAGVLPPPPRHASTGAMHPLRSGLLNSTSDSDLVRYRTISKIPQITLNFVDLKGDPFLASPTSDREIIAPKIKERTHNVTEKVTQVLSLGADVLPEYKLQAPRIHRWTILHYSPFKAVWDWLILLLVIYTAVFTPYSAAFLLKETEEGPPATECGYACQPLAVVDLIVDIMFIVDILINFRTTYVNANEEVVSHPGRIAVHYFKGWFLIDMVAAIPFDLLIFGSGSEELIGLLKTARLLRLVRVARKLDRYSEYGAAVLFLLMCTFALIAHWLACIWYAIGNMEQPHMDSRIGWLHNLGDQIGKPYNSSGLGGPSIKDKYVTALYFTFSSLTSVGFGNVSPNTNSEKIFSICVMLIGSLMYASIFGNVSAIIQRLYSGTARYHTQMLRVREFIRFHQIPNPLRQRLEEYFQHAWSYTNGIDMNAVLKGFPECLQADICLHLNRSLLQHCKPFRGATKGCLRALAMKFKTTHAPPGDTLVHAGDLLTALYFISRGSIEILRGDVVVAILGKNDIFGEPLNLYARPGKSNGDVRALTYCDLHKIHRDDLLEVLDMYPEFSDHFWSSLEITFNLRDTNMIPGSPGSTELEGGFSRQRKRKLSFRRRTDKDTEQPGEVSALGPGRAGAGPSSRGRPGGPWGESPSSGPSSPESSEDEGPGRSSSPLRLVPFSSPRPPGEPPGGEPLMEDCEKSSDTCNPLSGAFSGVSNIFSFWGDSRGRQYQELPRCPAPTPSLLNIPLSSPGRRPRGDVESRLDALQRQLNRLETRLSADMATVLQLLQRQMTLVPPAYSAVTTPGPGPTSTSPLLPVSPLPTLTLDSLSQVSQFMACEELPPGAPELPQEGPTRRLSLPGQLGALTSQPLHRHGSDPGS
The target in series [3] is T3, Beta-1 adrenergic receptor (Homo sapiens, UniProt P08588). Description: Displacement of radiolabeled iodocyanopindolol from beta1 adrenoceptor.
T3 sequence (P08588 whole entry): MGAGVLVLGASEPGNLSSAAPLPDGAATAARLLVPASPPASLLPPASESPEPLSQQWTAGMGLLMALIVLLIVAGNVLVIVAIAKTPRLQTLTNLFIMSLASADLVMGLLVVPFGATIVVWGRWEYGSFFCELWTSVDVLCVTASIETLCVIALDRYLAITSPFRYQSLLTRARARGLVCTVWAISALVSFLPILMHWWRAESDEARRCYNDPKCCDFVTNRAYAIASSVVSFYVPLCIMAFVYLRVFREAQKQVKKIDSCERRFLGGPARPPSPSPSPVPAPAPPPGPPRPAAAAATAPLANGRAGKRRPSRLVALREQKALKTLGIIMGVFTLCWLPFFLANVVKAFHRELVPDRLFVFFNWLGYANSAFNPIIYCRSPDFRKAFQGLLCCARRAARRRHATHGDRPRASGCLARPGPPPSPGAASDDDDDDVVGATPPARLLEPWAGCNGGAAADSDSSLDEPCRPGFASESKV
The target of series [4] is T4, Beta-2 adrenergic receptor (Homo sapiens, UniProt P07550). In words: Displacement of radiolabeled iodocyanopindolol from recombinant beta2 adrenoceptor.
T4 sequence (P07550 whole entry): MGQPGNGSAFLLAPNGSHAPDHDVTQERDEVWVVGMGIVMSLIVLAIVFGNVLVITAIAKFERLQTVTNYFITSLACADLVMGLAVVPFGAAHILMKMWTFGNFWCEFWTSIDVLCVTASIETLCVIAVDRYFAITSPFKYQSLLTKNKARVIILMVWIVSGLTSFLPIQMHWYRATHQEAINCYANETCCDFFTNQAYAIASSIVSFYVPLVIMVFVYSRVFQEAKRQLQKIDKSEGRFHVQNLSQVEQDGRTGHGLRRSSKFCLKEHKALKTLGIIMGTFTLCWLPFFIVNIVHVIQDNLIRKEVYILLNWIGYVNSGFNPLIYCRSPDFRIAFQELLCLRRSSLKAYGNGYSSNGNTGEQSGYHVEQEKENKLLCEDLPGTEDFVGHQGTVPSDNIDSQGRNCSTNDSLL
In the next series the target is Cytochrome P450 3A4 (Homo sapiens, UniProt P08684). In words: Inhibition of CYP3A4. The series is classed as ADME.
Cytochrome P450 3A4, sequence (P08684 whole entry): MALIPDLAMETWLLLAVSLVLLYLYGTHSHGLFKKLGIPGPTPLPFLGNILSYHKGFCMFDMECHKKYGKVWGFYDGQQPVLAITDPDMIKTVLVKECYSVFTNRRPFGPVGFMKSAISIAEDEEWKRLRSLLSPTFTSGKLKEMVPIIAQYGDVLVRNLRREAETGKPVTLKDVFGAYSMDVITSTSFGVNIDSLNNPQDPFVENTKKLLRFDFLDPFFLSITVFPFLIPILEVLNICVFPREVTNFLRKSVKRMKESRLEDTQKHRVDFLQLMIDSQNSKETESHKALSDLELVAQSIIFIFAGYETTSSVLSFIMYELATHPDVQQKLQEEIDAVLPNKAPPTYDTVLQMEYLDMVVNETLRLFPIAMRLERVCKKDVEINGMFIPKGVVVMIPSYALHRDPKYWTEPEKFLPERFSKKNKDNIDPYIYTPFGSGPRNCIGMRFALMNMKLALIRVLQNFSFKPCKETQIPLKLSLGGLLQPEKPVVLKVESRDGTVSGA
The next series in a line: physchem. The note with it: 1-octanol/aqueous buffer, pH 7.4.
In series [5] the target is T5, D(2) dopamine receptor (Homo sapiens, UniProt P14416). In words: Displacement of radiolabeled spiperone from dopamine D2 receptor.
T5 sequence (P14416 whole entry): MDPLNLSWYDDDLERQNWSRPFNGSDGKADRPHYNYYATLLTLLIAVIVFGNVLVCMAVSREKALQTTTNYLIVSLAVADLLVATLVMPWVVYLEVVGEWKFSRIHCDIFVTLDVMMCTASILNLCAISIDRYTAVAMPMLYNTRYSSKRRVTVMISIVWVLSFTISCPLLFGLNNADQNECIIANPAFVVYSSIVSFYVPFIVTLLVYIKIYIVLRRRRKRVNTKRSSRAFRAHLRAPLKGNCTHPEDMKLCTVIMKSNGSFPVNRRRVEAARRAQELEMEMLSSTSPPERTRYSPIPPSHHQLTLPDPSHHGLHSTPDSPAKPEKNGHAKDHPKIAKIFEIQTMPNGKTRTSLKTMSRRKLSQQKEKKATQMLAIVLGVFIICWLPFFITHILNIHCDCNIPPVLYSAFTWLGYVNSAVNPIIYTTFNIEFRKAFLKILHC
Series [6] has as its target T4, Beta-2 adrenergic receptor. In words: Agonist activity at human beta2 adrenoceptor expressed in H292 cells assessed as increase in cAMP accumulation after 60 mins by spectrophotometry. The series is classed as functional, cell-based. On the technique in general: Cyclic AMP is a second messenger, typically raised through Gs and lowered through Gi signalling.
Series [7] relates to Cavia porcellus. Description: Bronchoprotective activity in histamine-induced bronchoconstriction guinea pig model at 7 ug/kg, it co-administered with beta2 adrenoceptor antagonist propranolol. The series is classed as functional, organism-based.
Series [8] deals with Beta-2 adrenergic receptor (Cavia porcellus) (UniProt Q8K4Z4). Description: Agonist activity at beta2 adrenoceptor in guinea pig trachea assessed as reduction in methacholine-induced contraction relative to untreated control. The series is classed as functional, tissue-based.
Beta-2 adrenergic receptor (Cavia porcellus), sequence (Q8K4Z4 whole entry, looked up): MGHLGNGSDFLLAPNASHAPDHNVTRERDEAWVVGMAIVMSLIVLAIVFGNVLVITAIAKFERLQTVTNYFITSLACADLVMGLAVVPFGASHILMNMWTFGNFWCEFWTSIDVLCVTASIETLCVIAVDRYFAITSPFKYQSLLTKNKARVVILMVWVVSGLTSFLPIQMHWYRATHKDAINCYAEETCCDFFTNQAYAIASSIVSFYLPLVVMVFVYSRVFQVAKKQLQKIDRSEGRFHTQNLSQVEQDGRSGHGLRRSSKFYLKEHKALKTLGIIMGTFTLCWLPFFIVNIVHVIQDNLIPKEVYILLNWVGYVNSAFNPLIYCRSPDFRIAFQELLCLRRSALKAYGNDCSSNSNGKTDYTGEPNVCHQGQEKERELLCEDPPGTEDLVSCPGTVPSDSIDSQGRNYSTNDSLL
Series [9] concerns the target T5, D(2) dopamine receptor. Description: […] to dopamine D2 receptor expressed in HEK cells by GTPgammaS binding assay relative to control. The series is classed as cell-based. Conditions: HEK293.
Series [10] addresses T6, Alpha-1D adrenergic receptor (Homo sapiens) (UniProt P25100).
T6 sequence (whole entry): T1 sequence (P25100 whole entry)
Description: […] to Alpha-1D adrenoceptor expressed in HEK cells by calcium flux assay relative to control. Conditions: HEK293. The series is classed as cell-based. In general terms: A change in cytosolic calcium serves as a functional read-out for many receptors and channels.

The conditions of series [11]: octanol/water, pH 7.4.
Series [12] in a line: Inhibition of cytochrome P450. The series is classed as ADME.
The nature of series [13]: Apparent volume of distribution during terminal phase in iv dosed rat. The series is classed as ADME, organism-based. The note with it: in vivo, read-out: Vz.
The subject of series [14] is Cavia porcellus. Description: Bronchoprotective activity in histamine-induced bronchoconstriction guinea pig model at 7 ug/kg, it after 24 hrs. The series is classed as functional.
A short description of series [15]: Clearance in iv dosed rat. The note with it: in vivo.
A further series is described as follows: in vivo. Conditions: rat, iv.
Series [16] can be described thus: Half life in it dosed dog. The note with it: in vivo, inhaled or intranasal. The series is classed as ADME, organism-based, Canis lupus familiaris.
Series [17] has as its target T1, Alpha-1D adrenergic receptor. In words: […] to Alpha-1D adrenoceptor expressed in HEK cells by calcium flux assay. The series is classed as cell-based, HEK293.
In series [18] the target is T5, D(2) dopamine receptor. Description: […] to dopamine D2 receptor expressed in HEK cells by GTPgammaS binding assay. The series is classed as cell-based, HEK293.
Series [19] in a line: Oral bioavailability in dog. The series is classed as ADME, organism-based, Canis lupus familiaris. The note with it: in vivo.
Series [20] is described as follows: Oral bioavailability in rat. The series is classed as ADME, organism-based. Conditions: in vivo.
The target in series [21] is T2, Voltage-gated inwardly rectifying potassium channel KCNH2. In words: Inhibition of human ERG by patch clamp assay. Background: The patch-clamp technique gives a direct electrical read-out from membranes.
Series [22] concerns the target Beta-2 adrenergic receptor (Cavia porcellus, UniProt Q8K4Z4). In words: Agonist activity at beta2 adrenoceptor in guinea pig trachea assessed as reduction in methacholine-induced contraction. The series is classed as functional, tissue-based.
In another series the test system is Hepatocyte. Conditions: rat, hepatocytes.
Series [23] concerns the target T3, Beta-1 adrenergic receptor. In words: Binding affinity to beta1 adrenoceptor.
The subject of series [24] is Cavia porcellus. Description: Bronchoprotective activity in it dosed guinea pig assessed as inhibition of histamine-induced constriction.

Cytochrome P450 2D6, sequence (P10635 whole entry): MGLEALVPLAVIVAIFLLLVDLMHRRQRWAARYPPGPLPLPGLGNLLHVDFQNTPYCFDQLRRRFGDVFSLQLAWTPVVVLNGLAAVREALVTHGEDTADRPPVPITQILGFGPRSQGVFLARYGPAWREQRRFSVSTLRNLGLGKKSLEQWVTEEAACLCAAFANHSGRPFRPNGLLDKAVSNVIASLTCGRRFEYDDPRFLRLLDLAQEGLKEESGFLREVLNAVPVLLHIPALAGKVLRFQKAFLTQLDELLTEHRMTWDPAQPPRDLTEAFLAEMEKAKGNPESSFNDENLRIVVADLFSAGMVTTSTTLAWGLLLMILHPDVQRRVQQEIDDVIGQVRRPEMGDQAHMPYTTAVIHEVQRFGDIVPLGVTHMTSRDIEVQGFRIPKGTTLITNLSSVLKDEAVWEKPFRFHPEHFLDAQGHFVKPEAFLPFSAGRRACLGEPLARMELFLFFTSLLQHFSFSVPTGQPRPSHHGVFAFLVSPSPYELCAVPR
Beta-2 adrenergic receptor (Cavia porcellus, UniProt Q8K4Z4), sequence (Q8K4Z4 whole entry): as the sequence (Q8K4Z4 whole entry, looked up) above
Description for Hepatocyte: Drug metabolism in rat hepatocytes
Description for in vivo: Terminal half life in iv dosed rat

Consider `O=c1[nH]c2c(O)ccc([C@@H](O)CNCCc3ccc(CNCCc4c(Cl)cccc4Cl)cc3)c2s1`, for which the IC50 (usually the concentration needed to halve the response being measured) in [1] is 79.4 nM; in [3], 398 nM; in [4] it was 3.98 nM; at D(2) dopamine receptor [5], 1000 nM. Further, the “inhibition (INH)” value (against Cytochrome P450 2D6; in series [2]; against Cytochrome P450 3A4) was “Active” throughout. Further, the logD (usually the decadic logarithm of the distribution of all forms, ionised or not, between an organic phase and buffer at a given pH) in the series “physchem” worked out at 2.3. Besides, in series [6], the concentration for a half-maximal effect (EC50) (as a rule, the concentration needed to bring the measured effect to its halfway point) was 0.316 nM.

Turning to `COc1ccccc1CNCc1cccc(CCNC[C@H](O)c2ccc(O)c3[nH]c(=O)sc23)c1` [listing 1 of 2 here], in the series on Cavia porcellus [7], the outcome was inactive. Further, the figures for the Intrinsic activity (in series [8]; at D(2) dopamine receptor [9]; in [10]) were 0.9, 0.4 and 0.3, respectively.

As to `O=c1[nH]c2c(O)ccc([C@@H](O)CNCCc3cccc(CNCCc4c(Cl)cccc4Cl)c3)c2s1`, the results for the half-maximal inhibitory concentration (IC50) (in series [1]; in series [3]; on D(2) dopamine receptor [5]) were 63.1 nM, 12.6 nM and 251 nM, respectively. The “inhibition (INH)” value (against Cytochrome P450 2D6; in series [2]; at Cytochrome P450 3A4) was “Active” throughout. This molecule gave a logD in “physchem” of 3.2.

Regarding `O=c1[nH]c2c(O)ccc([C@@H](O)CNCCc3cccc(CN4CCCC4)c3)c2s1`, the IC50 is 1000 nM in series [1], 316 nM in series [3], 3.98 nM in series [4] and 3160 nM on D(2) dopamine receptor [5]. The logD in series [11] was 0.8. The EC50 in series [6] was 0.631 nM.

Take `COc1ccccc1CNCc1cccc(CCNC[C@H](O)c2ccc(O)c3[nH]c(=O)sc23)c1` [listing 2 of 2 here]: the Activity in series [12] is greater than 10 µM; in the series with Cavia porcellus [14], 64%; in series [21], greater than 10 µM. In addition, the IC50 in series [1] is 200 nM; in [3], 50.1 nM; on D(2) dopamine receptor [5], 1000 nM. The Vd in series [13] was found to be 22 L/kg. Moreover, the clearance (commonly a measure of how efficiently the substance is removed, as volume per time) in series [15] worked out at 20 mL/min/kg. In addition, the values for the half-life (in “in vivo”; in series [16]) were 14 h and 48 h, respectively. The pH-dependent lipophilicity (logD) in “physchem” came out at 1.1. Moreover, the EC50 in [17] was 126 nM; at D(2) dopamine receptor [18], 251 nM; in series [22], 0.501 nM. Also, the bioavailability in series [19] and in series [20] was less than 2% each time.

Regarding `O=c1[nH]c2c(O)ccc(CCNCCS(=O)(=O)CCCOCCc3ccccc3)c2s1` [SIBENADET], in the series on Hepatocyte, the Drug metabolism was greater than 117%. The IC50 in series [23] was greater than 10000 nM.

In turn, `CCc1cc2c(cc1CC)CC(NC[C@H](O)c1ccc(O)c3[nH]c(=O)ccc13)C2` [INDACATEROL] yielded a Drug metabolism with Hepatocyte of 51%. The half-life (commonly how long it takes for the measured level to halve) in the series “in vivo” is 7.6 h. The IC50 in series [23] is […]. Moreover, the ED80 with Cavia porcellus [24] stood at 0.014 mg/kg.

The values are drawn from ChEMBL document CHEMBL1944599, “From libraries to candidate: the discovery of new ultra long-acting dibasic β₂-adrenoceptor agonists” (Bioorg Med Chem Lett, 2012).
